Converted amounts (≈) assume the structure as drawn. Values belong to the molecule of their own block, whether it stands above or below them.
Experiments:
[1] = target: T1, Sodium channel protein type 9 subunit alpha (Homo sapiens, UniProt Q15858); assay: Displacement of [3H]GX-545 from human Nav1.7 alpha subunit expressed in HEK293 cells co-expressing beta1 subunit by liquid scintillation counting analysis; assay type: cell-based
[2] = target: T1, Sodium channel protein type 9 subunit alpha; assay: Inhibition of human Nav1.7 alpha subunit expressed in HEK293 cells co-expressing beta1 subunit at -60 mV holding potential by whole-cell patch voltage clamp electrophysiology recording; assay type: cell-based
[3] = Apparent permeability from apical to basolateral side in MDCK1 cells; assay type: ADME, cell-based, Canis lupus familiaris; details: dog, MDCK
[4] = Protein binding in human plasma; assay type: ADME, cell-free; details: read-out: PPB (converted)
[5] = Protein binding in mouse plasma; assay type: ADME, cell-free; details: read-out: PPB (converted)
[6] = Lipophilicity, logD of the compound at pH 7.4; assay type: physicochemical; details: buffer
[7] = target: Sodium channel protein type 9 subunit alpha (Mus musculus, UniProt Q62205); assay: Inhibition of mouse Nav1.7 at -60 mV holding potential by PatchXpress automated voltage clamp electrophysiology technique
[8] = target: Sodium channel protein type 9 subunit alpha (Rattus norvegicus, UniProt O08562); assay: Inhibition of rat Nav1.7 at -60 mV holding potential by PatchXpress automated voltage clamp electrophysiology technique
[9] = target: Sodium channel protein type 5 subunit alpha (Homo sapiens, UniProt Q14524); assay: Inhibition of human Nav1.5 alpha subunit expressed in HEK293 cells co-expressing beta1 subunit at -60 mV holding potential by PatchXpress automated voltage clamp electrophysiology technique; assay type: cell-based
[10] = target: Sodium channel protein type 2 subunit alpha (Homo sapiens, UniProt Q99250); assay: Inhibition of human Nav1.2 alpha subunit expressed in HEK293 cells co-expressing beta1 subunit at -35 mV holding potential by PatchXpress automated voltage clamp electrophysiology technique; assay type: cell-based
[11] = target: Sodium channel protein type 1 subunit alpha (Homo sapiens, UniProt P35498); assay: Inhibition of human Nav1.1 alpha subunit expressed in HEK293 cells co-expressing beta1 subunit at -40 mV holding potential by PatchXpress automated voltage clamp electrophysiology technique; assay type: cell-based
[12] = target: Sodium channel protein type 8 subunit alpha (Homo sapiens, UniProt Q9UQD0); assay: Inhibition of human Nav1.6 alpha subunit expressed in HEK293 cells co-expressing beta1 subunit at -35 mV holding potential by PatchXpress automated voltage clamp electrophysiology technique; assay type: cell-based
Chain of Sodium channel protein type 8 subunit alpha (Q9UQD0 whole entry): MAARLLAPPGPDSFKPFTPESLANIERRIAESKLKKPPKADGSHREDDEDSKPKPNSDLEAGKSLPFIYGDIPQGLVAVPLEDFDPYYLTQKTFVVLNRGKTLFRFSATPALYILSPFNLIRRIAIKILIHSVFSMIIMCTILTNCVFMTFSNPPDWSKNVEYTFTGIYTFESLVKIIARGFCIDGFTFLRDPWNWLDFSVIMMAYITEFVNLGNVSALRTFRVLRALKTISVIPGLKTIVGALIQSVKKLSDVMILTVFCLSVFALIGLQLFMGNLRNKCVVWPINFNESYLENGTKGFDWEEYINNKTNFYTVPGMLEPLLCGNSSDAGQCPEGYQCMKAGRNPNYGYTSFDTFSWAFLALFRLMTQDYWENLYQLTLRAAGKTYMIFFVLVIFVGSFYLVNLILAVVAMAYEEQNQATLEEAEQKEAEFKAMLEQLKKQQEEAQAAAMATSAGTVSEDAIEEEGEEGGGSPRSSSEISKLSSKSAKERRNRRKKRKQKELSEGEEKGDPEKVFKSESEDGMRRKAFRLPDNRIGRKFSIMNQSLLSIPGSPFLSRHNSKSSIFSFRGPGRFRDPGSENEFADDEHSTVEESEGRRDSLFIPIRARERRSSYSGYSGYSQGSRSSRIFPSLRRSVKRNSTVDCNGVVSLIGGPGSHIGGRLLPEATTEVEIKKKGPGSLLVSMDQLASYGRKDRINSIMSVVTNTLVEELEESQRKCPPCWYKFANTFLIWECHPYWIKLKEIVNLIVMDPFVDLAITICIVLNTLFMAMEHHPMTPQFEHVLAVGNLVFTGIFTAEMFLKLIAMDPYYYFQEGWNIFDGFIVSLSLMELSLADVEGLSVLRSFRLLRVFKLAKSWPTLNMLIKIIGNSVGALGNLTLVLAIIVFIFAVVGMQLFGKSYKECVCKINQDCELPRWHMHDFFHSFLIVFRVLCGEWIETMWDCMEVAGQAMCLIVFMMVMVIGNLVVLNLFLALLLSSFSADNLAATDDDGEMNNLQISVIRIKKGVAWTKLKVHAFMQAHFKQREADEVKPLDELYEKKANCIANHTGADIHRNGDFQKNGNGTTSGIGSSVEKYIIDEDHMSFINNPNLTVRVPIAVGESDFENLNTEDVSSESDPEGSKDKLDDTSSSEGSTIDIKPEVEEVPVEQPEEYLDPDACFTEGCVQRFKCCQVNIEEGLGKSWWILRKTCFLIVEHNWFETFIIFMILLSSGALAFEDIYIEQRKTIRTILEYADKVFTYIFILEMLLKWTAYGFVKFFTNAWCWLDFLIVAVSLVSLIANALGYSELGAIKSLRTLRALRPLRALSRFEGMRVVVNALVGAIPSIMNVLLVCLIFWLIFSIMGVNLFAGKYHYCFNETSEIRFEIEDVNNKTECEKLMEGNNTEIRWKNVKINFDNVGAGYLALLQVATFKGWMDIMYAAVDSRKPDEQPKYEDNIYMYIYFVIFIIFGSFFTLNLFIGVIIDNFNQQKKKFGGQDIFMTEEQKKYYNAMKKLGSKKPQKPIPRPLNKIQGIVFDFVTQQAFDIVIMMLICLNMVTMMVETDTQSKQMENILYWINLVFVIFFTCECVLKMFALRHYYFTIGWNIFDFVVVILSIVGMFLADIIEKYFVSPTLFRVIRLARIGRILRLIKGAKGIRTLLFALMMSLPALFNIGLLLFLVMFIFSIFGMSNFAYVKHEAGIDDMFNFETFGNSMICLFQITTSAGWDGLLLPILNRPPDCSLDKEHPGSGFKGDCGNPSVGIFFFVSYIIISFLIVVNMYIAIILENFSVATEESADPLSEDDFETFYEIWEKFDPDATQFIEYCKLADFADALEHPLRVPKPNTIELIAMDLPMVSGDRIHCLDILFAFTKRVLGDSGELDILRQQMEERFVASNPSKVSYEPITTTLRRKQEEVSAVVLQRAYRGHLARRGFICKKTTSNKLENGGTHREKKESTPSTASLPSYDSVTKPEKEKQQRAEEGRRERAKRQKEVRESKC

[13] = target: Sodium channel protein type 10 subunit alpha (Mus musculus) (UniProt Q6QIY3); assay: Inhibition of TTX-resistant Nav1.8 in mouse dorsal root ganglion neuron at 10 uM by voltage clamp recording relative to control; assay type: tissue-based; details: DRG neuron
[14] = Protein binding in rat plasma; assay type: ADME, cell-free; details: read-out: PPB (converted)
[15] = Kinetic solubility of compound; assay type: physicochemical; details: read-out: Kinetic_solubility
[16] = system: MDR1; assay: Apparent permeability from apical to basolateral side in MDCK1 cells expressing MDR1; assay type: ADME, cell-based, Canis lupus familiaris; details: dog, MDCK-MDR1
[17] = system: mouse breast cancer resistant protein (Bcrp); assay: Apparent permeability from apical to basolateral side in MDCK-II cells expressing mouse breast cancer resistant protein; assay type: ADME, cell-based, Canis lupus familiaris; details: dog
[18] = Half-life in FVB mouse at 1 mg/kg, iv; assay type: ADME, organism-based; details: FVB, in vivo
[19] = Clearance in FVB mouse at 1 mg/kg, iv; assay type: ADME, organism-based; details: in vivo
[20] = Volume of distribution at steady state in FVB mouse at 1 mg/kg, iv; assay type: ADME, organism-based; details: FVB, in vivo, read-out: Vdss
[21] = Half-life in FVB mouse at 30 mg/kg, po; assay type: ADME, organism-based; details: in vivo
[22] = Cmax in FVB mouse at 30 mg/kg, po; assay type: ADME, organism-based; set-up: dose 30 mg/kg, route po; details: in vivo
[23] = AUC in FVB mouse at 30 mg/kg, po; assay type: ADME, organism-based; set-up: dose 30 mg/kg, route po; details: in vivo
[24] = Oral bioavailability in FVB mouse at 30 mg/kg; assay type: ADME, organism-based; details: in vivo
[25] = Half-life in Sprague-Dawley rat at 1 mg/kg, iv; assay type: ADME, organism-based; details: in vivo
[26] = Clearance in Sprague-Dawley rat at 1 mg/kg, iv; assay type: ADME, organism-based; details: in vivo
[27] = Volume of distribution at steady state in Sprague-Dawley rat at 1 mg/kg, iv; assay type: ADME, organism-based; details: in vivo, read-out: Vdss
[28] = Half-life in Sprague-Dawley rat at 5 mg/kg, po; assay type: ADME, organism-based; details: in vivo
[29] = Cmax in Sprague-Dawley rat at 5 mg/kg, po; assay type: ADME, organism-based; set-up: dose 5 mg/kg, route po; details: in vivo
[30] = AUC in Sprague-Dawley rat at 5 mg/kg, po; assay type: ADME, organism-based; set-up: dose 5 mg/kg, route po; details: in vivo
[31] = Oral bioavailability in Sprague-Dawley rat at 5 mg/kg; assay type: ADME, organism-based; details: in vivo
[32] = system: Mus musculus; assay: Antinociceptive activity against aconitine-induced pain in FVB mouse model expressing human Nav 1.7 I848T mutant assessed as reduction in nociceptive behavior at 3 mg/kg administered 120 mins prior to aconitine administration and measured after 70 mins relative to control; assay type: functional; set-up: scale not given: the % may be the effect or the level left; details: time 190 min, 3.167 h
[33] = system: Mus musculus; assay: Antinociceptive activity against aconitine-induced pain in FVB mouse model expressing human Nav 1.7 I848T mutant assessed as reduction in nociceptive behavior at 6 mg/kg administered 120 mins prior to aconitine administration and measured after 70 mins relative to control; assay type: functional; set-up: scale not given: the % may be the effect or the level left; details: time 190 min, 3.167 h
[34] = system: Mus musculus; assay: Antinociceptive activity against aconitine-induced pain in FVB mouse model expressing human Nav 1.7 I848T mutant assessed as reduction in nociceptive behavior at 10 mg/kg administered 120 mins prior to aconitine administration and measured after 70 mins relative to control; assay type: functional; set-up: scale not given: the % may be the effect or the level left; details: time 190 min, 3.167 h
[35] = Solubility of compound; assay type: physicochemical
[36] = Volume of distribution at steady state in mouse at 1 mg/kg, iv; assay type: ADME, organism-based; details: in vivo, read-out: Vdss
[37] = AUC in mouse at 30 mg/kg, po; assay type: ADME, organism-based; set-up: dose 30 mg/kg, route po; details: in vivo
[38] = Cmax in mouse at 30 mg/kg, po; assay type: ADME, organism-based; set-up: dose 30 mg/kg, route po; details: in vivo
[39] = Oral bioavailability in mouse at 30 mg/kg; assay type: ADME, organism-based; details: in vivo

T1 sequence (Q15858 whole entry): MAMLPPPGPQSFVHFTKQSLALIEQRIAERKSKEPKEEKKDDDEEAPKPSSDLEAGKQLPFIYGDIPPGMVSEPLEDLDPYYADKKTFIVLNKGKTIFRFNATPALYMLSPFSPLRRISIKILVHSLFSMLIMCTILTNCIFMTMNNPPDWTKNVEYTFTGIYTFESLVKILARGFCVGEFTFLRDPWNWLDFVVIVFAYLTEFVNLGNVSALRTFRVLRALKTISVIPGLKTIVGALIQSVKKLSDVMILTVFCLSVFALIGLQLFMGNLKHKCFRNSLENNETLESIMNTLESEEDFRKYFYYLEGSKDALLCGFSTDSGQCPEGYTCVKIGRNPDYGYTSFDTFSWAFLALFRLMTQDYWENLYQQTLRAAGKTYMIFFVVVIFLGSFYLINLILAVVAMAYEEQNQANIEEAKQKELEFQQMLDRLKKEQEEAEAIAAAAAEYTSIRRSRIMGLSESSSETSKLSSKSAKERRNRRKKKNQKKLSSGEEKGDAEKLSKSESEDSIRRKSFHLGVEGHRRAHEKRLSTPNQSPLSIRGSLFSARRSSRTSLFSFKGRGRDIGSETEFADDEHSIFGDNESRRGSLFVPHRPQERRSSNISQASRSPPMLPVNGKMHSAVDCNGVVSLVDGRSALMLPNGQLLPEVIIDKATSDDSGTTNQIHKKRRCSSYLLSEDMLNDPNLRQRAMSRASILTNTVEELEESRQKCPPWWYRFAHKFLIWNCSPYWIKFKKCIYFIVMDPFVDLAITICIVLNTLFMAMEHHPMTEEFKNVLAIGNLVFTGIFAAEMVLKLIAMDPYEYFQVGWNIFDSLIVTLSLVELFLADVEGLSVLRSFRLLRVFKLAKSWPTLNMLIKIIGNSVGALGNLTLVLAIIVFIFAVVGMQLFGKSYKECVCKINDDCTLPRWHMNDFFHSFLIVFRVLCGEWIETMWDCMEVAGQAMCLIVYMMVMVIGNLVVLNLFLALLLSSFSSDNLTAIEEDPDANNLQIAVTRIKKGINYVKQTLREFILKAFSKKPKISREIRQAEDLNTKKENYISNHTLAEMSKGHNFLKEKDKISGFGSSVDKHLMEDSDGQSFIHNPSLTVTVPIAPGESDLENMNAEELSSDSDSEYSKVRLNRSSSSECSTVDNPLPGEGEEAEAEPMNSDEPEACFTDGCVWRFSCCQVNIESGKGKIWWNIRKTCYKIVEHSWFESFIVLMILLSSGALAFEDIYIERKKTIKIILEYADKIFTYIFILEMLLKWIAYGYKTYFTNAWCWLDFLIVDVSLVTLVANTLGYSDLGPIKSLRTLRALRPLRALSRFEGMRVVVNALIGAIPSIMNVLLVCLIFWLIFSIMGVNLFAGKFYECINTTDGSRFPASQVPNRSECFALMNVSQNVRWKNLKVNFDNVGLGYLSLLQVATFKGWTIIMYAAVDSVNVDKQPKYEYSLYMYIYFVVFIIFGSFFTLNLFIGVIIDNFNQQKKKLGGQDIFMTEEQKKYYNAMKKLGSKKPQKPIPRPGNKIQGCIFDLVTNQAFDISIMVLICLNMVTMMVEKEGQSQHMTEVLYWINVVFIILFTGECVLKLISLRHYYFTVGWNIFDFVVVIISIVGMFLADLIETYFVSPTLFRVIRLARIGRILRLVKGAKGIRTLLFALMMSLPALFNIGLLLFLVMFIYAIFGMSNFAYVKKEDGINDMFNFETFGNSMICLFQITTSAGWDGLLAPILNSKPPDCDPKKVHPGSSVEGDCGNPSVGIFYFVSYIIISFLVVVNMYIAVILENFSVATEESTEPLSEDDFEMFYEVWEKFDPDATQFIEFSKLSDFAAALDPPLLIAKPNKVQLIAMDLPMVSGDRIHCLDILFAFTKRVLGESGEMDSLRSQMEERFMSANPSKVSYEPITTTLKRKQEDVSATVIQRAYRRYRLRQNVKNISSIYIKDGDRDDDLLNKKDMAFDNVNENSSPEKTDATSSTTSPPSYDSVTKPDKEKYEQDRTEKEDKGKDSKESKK

- IC50 [1]: 15 nM
- IC50 [2]: 6 nM
SMILES: CCc1cc(C(=O)NS(C)(=O)=O)c(F)cc1OCC12CC3CC(CC(C3)C1)C2

- IC50 [1]: 37 nM
- IC50 [2]: 6 nM
SMILES: Cc1cc(C(=O)NS(C)(=O)=O)c(F)cc1OCC12CC3CC(CC(C3)C1)C2

- IC50 [1]: 6 nM
SMILES: CS(=O)(=O)NC(=O)c1cc(C2CC2)c(OCC23CC4CC(CC(C4)C2)C3)cc1F

SMILES: CC1(COc2cc(F)c(C(=O)NS(=O)(=O)C3CC3)cc2C2CC2)CCC(F)(F)CC1
- Papp A→B [3]: 22 ×10⁻⁶ cm/s
- fraction unbound [4]: 0.004
- fraction unbound [5]: 0.002
- logD ([6]; read-out: logD): 1.4
- IC50 [7]: 2.5 nM
- IC50 [8]: 9 nM
- IC50 [9]: 260 nM
- IC50 [10]: 6 nM
- IC50 [11]: 48 nM
- IC50 [12]: 49 nM
- inhibition [13]: 26%
- fraction unbound [14]: 0.002
- solubility kinetic [15]: 32 µM (≈ 14.3 µg/mL)
- Papp A→B [16]: 11 ×10⁻⁶ cm/s
- Papp A→B [17]: 0.4 ×10⁻⁶ cm/s
- half-life [18]: 2.1 h
- clearance [19]: 1.6 mL/min/kg
- Vd [20]: 0.28 L/kg
- half-life [21]: 15.6 h
- Cmax [22]: 69 µM
- AUC [23]: 350 µM·h
- bioavailability [24]: 49%
- half-life [25]: 9 h
- clearance [26]: 0.4 mL/min/kg
- Vd [27]: 0.29 L/kg
- half-life [28]: 16.9 h
- Cmax [29]: 25 µM
- AUC [30]: 160 µM·h
- bioavailability [31]: 66%
- Activity [32]: 56%
- Activity [33]: 72%
- Activity [34]: 84%

- IC50 [1]: > 10000 nM
- IC50 [2]: 7400 nM
- logD ([6]; read-out: logD): 0.21
SMILES: CS(=O)(=O)NC(=O)c1cc(Cl)c(OCC2CCOCC2)cc1F

- IC50 [1]: 2700 nM
- IC50 [2]: 440 nM
- logD ([6]; read-out: logD): 0.4
SMILES: CS(=O)(=O)NC(=O)c1cc(Cl)c(OCCC2CC2)cc1F

- IC50 [1]: 2400 nM
- IC50 [2]: 752 nM
SMILES: CS(=O)(=O)NC(=O)c1cc(Cl)c(OCC23CC4(F)CC(F)(CC(F)(C4)C2)C3)cc1F

- IC50 [1]: 500 nM
- IC50 [2]: 17 nM
- logD ([6]; read-out: logD): 1.5
SMILES: CS(=O)(=O)NC(=O)c1cc(Cl)c(OCCC2CCCCC2)cc1F

- IC50 [1]: 520 nM
- IC50 [2]: 68 nM
- logD ([6]; read-out: logD): 1.1
SMILES: CS(=O)(=O)NC(=O)c1cc(Cl)c(OCC2CCCC2)cc1F

- IC50 [1]: 22 nM
- IC50 [2]: 0.7 nM
SMILES: CS(=O)(=O)NC(=O)c1cc(C2CC2)c(OCC2CCCCC2)cc1F

- IC50 [1]: > 10000 nM
- IC50 [2]: 2200 nM
SMILES: CS(=O)(=O)NC(=O)c1cc(Cl)c(OCC23CC4CC(CC(O)(C4)C2)C3)cc1F

- IC50 [1]: 304 nM
- IC50 [2]: 75 nM
SMILES: COCCS(=O)(=O)NC(=O)c1cc(C2CC2)c(OCC2CCC(F)(F)CC2)cc1F

- IC50 [1]: 357 nM
SMILES: CS(=O)(=O)NC(=O)c1cc(Cl)c(OCC23CC4CC(CC(F)(C4)C2)C3)cc1F

- IC50 [1]: 17 nM
- IC50 [2]: 5 nM
SMILES: CCC1(COc2cc(F)c(C(=O)NS(=O)(=O)C3CC3)cc2C2CC2)CCC(F)(F)CC1

- IC50 [1]: 28 nM
- IC50 [2]: 10 nM
SMILES: CC(C)c1cc(C(=O)NS(C)(=O)=O)c(F)cc1OCC12CC3CC(CC(C3)C1)C2

- IC50 [1]: 2300 nM
- IC50 [2]: 570 nM
SMILES: CS(=O)(=O)NC(=O)c1cc(Cl)c(OCC23CC4CC(CC(C4)C2)C3)cc1Cl

- solubility [35]: 31 µM (≈ 12.9 µg/mL)
- Papp A→B [3]: 13 ×10⁻⁶ cm/s
- Vd [36]: 1.2 L/kg
- AUC [37]: 240 µM·h
- Cmax [38]: 45 µM
- bioavailability [39]: 100%
- logD [6]: 3.5
SMILES: CS(=O)(=O)NC(=O)c1cc(Cl)c(OCC23CC4CC(CC(C4)C2)C3)cc1F

- IC50 [1]: 640 nM
- IC50 [2]: 41 nM
SMILES: CS(=O)(=O)NC(=O)c1cc(F)c(OCC23CC4CC(CC(C4)C2)C3)cc1F

- IC50 [1]: 8 nM
- IC50 [2]: 3.1 nM
SMILES: CS(=O)(=O)NC(=O)c1cc(C2CC2)c(OCC23CC4CC(C2)C(F)(F)C(C4)C3)cc1F

- IC50 [1]: 330 nM
- IC50 [2]: 59 nM
SMILES: CS(=O)(=O)NC(=O)c1ccc(OCC23CC4CC(CC(C4)C2)C3)c(Cl)c1

- IC50 [1]: 10 nM
- IC50 [2]: 6 nM
SMILES: CC1(COc2cc(F)c(C(=O)NS(=O)(=O)C3CC3)cc2C2CC2)CCC(C(F)(F)F)CC1 (configuration not stated)

- IC50 [1]: 1200 nM
- IC50 [2]: 260 nM
- logD ([6]; read-out: logD): 1.3
SMILES: CS(=O)(=O)NC(=O)c1cc(Cl)c(OC2CCCCC2)cc1F

- IC50 [1]: 180 nM
- IC50 [2]: 43 nM
- logD ([6]; read-out: logD): 1.4
SMILES: CS(=O)(=O)NC(=O)c1cc(Cl)c(OCC2CCCCC2)cc1F

- IC50 [1]: 290 nM
SMILES: CS(=O)(=O)NC(=O)c1cc(Cl)c(OCC23CC4CC(C2)C(F)(F)C(C4)C3)cc1F

- IC50 [1]: 33 nM
SMILES: O=C(NS(=O)(=O)C1CC1)c1cc(C2CC2)c(OCC2CCC(F)(F)CC2)cc1F

From ChEMBL document CHEMBL5260838 (J Med Chem, 2019)
